Blank lines part the entries; values can stand above or below the compound they belong to.
What was measured:
Aurora kinase B = Aurora kinase B (Homo sapiens, UniProt Q96GD4); test: Inhibition of human aurora B
Aurora kinase C = molecular target: T1, Aurora kinase C (Homo sapiens, UniProt Q9UQB9); test: Inhibition of human aurora C
T1 sequence (Q9UQB9 whole entry): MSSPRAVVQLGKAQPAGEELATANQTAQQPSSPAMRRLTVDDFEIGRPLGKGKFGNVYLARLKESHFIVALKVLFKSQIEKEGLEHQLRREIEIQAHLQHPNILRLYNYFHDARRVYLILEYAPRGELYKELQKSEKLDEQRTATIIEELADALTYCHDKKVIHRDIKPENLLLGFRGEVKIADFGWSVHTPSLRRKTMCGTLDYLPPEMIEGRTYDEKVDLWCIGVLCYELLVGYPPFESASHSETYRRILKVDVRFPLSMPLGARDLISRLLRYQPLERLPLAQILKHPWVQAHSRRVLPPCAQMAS

[1] = molecular target: T2, Receptor-type tyrosine-protein kinase FLT3 (Homo sapiens, UniProt P36888); test: Inhibition of human FLT3
T2 sequence (P36888 whole entry): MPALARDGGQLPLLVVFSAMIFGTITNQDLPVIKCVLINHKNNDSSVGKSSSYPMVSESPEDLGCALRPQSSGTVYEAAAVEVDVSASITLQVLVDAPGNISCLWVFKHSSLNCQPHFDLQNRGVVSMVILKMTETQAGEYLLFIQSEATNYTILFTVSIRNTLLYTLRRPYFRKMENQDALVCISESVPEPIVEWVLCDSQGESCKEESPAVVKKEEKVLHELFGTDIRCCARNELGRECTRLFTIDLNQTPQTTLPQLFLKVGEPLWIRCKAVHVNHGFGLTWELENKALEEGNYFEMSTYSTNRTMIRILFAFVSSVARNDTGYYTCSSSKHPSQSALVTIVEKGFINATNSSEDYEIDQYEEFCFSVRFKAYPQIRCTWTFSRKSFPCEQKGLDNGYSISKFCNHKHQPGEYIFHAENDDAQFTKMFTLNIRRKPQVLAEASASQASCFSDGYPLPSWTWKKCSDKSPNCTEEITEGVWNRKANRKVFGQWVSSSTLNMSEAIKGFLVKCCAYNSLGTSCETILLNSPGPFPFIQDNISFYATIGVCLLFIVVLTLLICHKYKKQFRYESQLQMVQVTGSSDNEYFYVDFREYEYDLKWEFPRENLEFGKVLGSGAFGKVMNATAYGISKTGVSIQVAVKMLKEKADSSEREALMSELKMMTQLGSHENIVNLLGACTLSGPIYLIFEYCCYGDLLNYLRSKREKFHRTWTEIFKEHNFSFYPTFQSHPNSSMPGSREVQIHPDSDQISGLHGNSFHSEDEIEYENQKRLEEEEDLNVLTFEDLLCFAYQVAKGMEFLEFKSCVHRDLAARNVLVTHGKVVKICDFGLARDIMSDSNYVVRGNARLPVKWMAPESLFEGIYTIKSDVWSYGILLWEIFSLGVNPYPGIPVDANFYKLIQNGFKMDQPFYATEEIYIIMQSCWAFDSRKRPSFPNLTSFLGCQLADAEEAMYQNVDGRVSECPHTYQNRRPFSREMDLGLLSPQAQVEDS

[2] = Cmax in plasma of human patient with advanced solid tumors at 0.5 to 12 mg/m2/hr, iv administered by continuous intravenous infusion over 5 days every 4 weeks; type: ADME, organism-based; settings: dose 0.5-12 mg/m2/hr, time 5 day
[3] = Half life in human patient with advanced solid tumors at 0.5 to 12 mg/m2/hr, iv administered by continuous intravenous infusion over 5 days every 4 weeks; type: ADME, organism-based; settings: in vivo, dose 0.5-12 mg/m2/hr, time 5 day

Sequence of Aurora kinase B (Q96GD4 whole entry): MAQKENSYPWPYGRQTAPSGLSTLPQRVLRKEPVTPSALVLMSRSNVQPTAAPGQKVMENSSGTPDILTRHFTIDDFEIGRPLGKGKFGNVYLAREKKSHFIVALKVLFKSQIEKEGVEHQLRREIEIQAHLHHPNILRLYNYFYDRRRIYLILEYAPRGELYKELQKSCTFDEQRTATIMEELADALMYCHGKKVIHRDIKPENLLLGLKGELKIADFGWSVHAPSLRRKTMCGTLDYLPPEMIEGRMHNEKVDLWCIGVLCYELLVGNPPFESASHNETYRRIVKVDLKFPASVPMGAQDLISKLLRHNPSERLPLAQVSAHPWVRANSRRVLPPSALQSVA

- IC50 (Aurora kinase B): < 0.003 µM
SMILES: O=C(Nc1c[nH]nc1-c1nc2cc(CN3CCOCC3)ccc2[nH]1)NC1CC1 [AT-9283]

- Ki (Aurora kinase C): 0.017 µM
SMILES: CCN(CCCOc1ccc2c(Nc3cc(CC(=O)Nc4cccc(F)c4)n[nH]3)ncnc2c1)CCOP(=O)(O)O [BARASERTIB]

- IC50 [1]: 0.39 µM
- IC50 (Aurora kinase B): 0.035 µM
SMILES: CCc1cccc(CC)c1NC(=O)N1Cc2n[nH]c(NC(=O)c3ccc(N4CCN(C)CC4)cc3)c2C1 [PHA-680632]

- Cmax [2]: 650 nM
- half-life [3]: 15 h
SMILES: Cc1cc(Nc2cc(N3CCN(C)CC3)nc(Sc3ccc(NC(=O)C4CC4)cc3)n2)[nH]n1 [TOZASERTIB]

Source: ChEMBL document CHEMBL5715939, “Aurora kinase inhibitors: a new class of targeted drugs in cancer” (Clin Lung Cancer, 2006)
